Holding throughout (assay): Kinase selectivity, scanMAX Kinase assay panel (DiscoverX), % control at 1 uM
Holding throughout (type): binding

In assay [1] the target is T1, scanMAX Kinase assay panel (Homo sapiens, UniProt O00329).
T1 construct: purchased DiscoverX
T1 sequence (O00329 1-1044): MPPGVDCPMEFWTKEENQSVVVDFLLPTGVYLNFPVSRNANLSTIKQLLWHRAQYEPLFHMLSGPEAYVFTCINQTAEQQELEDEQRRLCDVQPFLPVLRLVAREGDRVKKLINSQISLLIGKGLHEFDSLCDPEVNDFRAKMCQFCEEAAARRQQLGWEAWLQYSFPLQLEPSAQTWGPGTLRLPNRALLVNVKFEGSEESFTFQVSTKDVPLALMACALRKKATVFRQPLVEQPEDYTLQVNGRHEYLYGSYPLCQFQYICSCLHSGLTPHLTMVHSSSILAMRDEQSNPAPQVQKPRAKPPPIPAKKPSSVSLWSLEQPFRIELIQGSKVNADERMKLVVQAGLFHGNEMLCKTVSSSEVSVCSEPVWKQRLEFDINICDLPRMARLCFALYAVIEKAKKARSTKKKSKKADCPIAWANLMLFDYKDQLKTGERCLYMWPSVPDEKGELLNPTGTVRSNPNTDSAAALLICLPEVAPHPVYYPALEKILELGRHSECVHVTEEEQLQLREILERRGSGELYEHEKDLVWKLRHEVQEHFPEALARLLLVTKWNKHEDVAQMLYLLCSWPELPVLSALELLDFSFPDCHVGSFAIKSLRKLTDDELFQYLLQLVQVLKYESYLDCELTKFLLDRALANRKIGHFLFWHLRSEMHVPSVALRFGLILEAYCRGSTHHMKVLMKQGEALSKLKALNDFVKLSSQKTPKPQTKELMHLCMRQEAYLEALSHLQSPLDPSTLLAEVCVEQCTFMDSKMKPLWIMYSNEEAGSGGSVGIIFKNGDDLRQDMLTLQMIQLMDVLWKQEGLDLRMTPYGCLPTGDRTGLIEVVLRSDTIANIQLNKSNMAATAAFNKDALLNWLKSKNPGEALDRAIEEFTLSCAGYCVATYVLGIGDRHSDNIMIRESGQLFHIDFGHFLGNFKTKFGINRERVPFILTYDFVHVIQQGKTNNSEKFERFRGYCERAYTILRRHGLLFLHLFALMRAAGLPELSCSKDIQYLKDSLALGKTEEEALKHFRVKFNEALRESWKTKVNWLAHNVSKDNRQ
To be noted: PIK3CD; 1 uM; read-out: Percent Control (%). Put shortly:
(§1)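 A single concentration of 1 uM, in DMSO, is applied across the kinase panel. Activity against an individual enzyme is assigned where % control is less than 35.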

The target in assay [2] is T2, scanMAX Kinase assay panel (Homo sapiens, UniProt O15264).
T2 construct: purchased DiscoverX
T2 sequence (O15264 1-365): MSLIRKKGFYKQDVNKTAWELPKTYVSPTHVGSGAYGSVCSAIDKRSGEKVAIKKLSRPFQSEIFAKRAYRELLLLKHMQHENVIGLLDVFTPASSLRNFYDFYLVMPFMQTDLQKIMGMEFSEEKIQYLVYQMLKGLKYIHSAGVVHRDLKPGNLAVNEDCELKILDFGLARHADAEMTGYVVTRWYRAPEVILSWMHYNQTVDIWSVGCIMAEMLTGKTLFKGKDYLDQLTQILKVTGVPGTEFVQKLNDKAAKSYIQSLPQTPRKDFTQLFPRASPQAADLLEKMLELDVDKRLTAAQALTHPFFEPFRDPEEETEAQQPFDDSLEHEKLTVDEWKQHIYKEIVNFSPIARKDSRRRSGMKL
Conditions: p38-delta; 1 uM; read-out: Percent Control (%). Put shortly:
as §1

Assay [3] concerns the target T3, scanMAX Kinase assay panel (Homo sapiens, UniProt O60331).
T3 construct: purchased DiscoverX
Conditions: PIP5K1C; 1 uM; read-out: Percent Control (%). An outline of the steps: as §1

Assay [4] concerns the target T4, scanMAX Kinase assay panel (Homo sapiens, UniProt P00519, Q252H).
T4 construct: purchased DiscoverX
Conditions: 1 uM, read-out: Percent Control (%). Put shortly:
as §1

The target in assay [5] is T5, scanMAX Kinase assay panel (Homo sapiens, UniProt P35968).
T5 construct: purchased DiscoverX
Conditions: VEGFR2; 1 uM; read-out: Percent Control (%). Put shortly: as §1

The target of assay [6] is T6, scanMAX Kinase assay panel (Homo sapiens, UniProt Q8NE63).
T6 construct: purchased DiscoverX
T6 sequence (Q8NE63 1-616): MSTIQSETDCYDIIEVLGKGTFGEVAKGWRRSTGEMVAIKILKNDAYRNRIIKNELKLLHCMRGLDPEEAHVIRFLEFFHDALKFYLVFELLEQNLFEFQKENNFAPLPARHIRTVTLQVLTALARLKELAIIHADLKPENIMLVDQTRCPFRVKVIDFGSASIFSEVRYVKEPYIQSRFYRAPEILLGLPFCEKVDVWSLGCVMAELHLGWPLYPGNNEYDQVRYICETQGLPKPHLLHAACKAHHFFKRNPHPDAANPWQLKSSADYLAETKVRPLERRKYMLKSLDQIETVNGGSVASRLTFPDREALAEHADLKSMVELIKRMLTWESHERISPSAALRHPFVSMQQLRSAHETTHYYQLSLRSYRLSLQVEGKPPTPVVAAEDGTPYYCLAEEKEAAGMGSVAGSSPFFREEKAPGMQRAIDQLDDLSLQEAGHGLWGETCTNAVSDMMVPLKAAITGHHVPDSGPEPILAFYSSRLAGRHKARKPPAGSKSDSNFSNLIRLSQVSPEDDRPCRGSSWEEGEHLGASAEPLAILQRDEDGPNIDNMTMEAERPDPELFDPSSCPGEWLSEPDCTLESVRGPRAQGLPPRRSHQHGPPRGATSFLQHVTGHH
Conditions: HIPK4; 1 uM; read-out: Percent Control (%). An outline of the steps:
as §1

Assay [7] addresses T7, scanMAX Kinase assay panel (Homo sapiens, UniProt Q9P0L2).
T7 construct: purchased DiscoverX
To be noted: MARK1; 1 uM; read-out: Percent Control (%). An outline of the steps:
as §1

In assay [8] the target is T8, scanMAX Kinase assay panel (Homo sapiens, UniProt Q9UEW8).
T8 construct: purchased DiscoverX
Conditions: STK39; 1 uM; read-out: Percent Control (%). Put shortly:
as §1

Where two headings read alike, the source gives them in different places.

T5 sequence (P35968 20-1356): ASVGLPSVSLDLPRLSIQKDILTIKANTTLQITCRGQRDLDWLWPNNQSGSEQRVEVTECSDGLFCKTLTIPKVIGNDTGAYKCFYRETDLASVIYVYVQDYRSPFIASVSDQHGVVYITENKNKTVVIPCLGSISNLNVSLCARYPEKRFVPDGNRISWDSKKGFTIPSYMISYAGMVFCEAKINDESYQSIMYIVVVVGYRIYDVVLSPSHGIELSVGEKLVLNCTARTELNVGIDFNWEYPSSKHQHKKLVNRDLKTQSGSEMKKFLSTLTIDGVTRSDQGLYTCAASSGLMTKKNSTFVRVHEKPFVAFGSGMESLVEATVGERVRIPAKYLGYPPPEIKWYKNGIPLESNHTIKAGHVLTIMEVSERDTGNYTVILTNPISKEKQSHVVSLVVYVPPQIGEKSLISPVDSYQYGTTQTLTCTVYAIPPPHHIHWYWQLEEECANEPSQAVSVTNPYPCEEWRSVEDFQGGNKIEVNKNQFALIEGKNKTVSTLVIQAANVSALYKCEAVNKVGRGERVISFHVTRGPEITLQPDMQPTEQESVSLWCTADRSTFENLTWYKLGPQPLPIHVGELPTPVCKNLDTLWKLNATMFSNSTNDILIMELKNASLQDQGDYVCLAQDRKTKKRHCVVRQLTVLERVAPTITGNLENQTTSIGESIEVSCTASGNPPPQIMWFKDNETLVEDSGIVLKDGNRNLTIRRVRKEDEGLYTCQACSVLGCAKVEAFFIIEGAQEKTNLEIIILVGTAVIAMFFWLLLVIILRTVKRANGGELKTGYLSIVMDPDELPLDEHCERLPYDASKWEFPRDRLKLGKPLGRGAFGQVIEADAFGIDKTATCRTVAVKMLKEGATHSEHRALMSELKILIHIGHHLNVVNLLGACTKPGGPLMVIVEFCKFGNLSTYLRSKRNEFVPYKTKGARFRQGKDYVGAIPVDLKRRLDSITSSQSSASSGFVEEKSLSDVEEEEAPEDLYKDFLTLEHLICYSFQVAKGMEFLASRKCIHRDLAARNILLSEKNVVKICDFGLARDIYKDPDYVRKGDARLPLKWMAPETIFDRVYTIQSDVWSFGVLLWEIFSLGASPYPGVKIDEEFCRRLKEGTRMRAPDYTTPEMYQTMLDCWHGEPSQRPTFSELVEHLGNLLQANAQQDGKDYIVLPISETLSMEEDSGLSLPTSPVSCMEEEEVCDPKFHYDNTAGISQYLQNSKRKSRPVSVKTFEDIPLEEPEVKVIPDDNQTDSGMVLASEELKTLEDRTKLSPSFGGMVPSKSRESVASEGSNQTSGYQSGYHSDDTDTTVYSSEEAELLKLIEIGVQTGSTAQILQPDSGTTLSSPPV
T3 sequence (O60331 whole entry): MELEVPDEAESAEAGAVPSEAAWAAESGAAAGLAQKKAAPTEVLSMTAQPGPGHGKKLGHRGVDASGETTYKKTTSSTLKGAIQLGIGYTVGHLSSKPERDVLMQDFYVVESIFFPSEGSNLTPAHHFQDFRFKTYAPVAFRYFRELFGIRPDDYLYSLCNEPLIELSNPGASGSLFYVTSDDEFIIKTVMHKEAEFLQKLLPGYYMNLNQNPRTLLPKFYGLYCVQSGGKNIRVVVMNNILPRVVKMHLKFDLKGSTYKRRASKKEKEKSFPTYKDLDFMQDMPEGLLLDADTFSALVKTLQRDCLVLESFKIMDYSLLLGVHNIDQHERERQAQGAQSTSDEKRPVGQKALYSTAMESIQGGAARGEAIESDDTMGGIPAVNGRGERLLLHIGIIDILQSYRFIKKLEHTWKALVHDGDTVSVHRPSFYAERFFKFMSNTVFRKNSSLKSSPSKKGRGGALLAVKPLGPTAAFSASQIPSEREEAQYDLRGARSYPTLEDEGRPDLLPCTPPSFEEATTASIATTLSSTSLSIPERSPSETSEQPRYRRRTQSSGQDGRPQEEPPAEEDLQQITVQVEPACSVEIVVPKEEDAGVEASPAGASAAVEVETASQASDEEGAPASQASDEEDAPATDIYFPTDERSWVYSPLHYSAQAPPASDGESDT
T7 sequence (Q9P0L2 whole entry): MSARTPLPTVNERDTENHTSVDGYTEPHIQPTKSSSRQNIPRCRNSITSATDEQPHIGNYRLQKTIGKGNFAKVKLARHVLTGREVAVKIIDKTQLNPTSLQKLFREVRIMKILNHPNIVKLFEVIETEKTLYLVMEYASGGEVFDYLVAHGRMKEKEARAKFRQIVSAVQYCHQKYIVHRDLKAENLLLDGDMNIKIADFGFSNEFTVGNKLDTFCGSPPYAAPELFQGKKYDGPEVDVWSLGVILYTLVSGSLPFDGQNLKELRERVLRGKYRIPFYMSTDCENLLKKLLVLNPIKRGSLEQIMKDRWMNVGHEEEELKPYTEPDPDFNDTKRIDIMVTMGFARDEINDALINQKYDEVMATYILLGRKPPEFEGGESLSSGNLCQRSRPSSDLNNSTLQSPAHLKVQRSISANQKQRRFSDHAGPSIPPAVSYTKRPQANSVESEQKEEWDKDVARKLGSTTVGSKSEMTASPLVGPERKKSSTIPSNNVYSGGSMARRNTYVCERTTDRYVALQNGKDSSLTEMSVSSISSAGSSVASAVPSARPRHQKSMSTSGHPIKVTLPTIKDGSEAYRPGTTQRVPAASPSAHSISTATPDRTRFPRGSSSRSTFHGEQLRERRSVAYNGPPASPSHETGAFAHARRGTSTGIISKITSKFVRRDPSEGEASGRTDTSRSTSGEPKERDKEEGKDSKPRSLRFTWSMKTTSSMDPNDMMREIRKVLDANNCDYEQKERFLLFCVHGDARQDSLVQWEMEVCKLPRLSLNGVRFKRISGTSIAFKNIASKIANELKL

As for `Cc1ccc(C(=O)Nc2ccc(CN3CCN(C)CC3)c(C(F)(F)F)c2)cc1C#Cc1cnc2c(Nc3cnn(C)c3)cccn12` [Example 1, 4-methyl-3-((8-((1-methyl-1H-pyrazol-4-yl)amino)imidazo[1,2-a]pyridin-3-yl)ethynyl)-N-(4-((4-methylpiperazin-1-yl)methyl)-3-(trifluoromethyl)phenyl)benzamide], the remaining binding at 1 µM in assay [1] was found to be 89%; in assay [2], 16%; in assay [3] it was 88%; in assay [4] (ABL1 (Q252H)-nonphosphorylated) it was 7%; in assay [4] (ABL1 (Q252H)-phosphorylated) it was 0%; in assay [5], 5%. Further, the remaining binding at 1 µM worked out at 2% in assay [6], 78% in assay [7] and 97% in assay [8].
Take `Cc1cn(-c2cc(NC(=O)c3ccc(C)c(C#Cc4cnc5c(Nc6cnn(C)c6)cccn45)c3)cc(C(F)(F)F)c2)cn1` [Example 12, 4-methyl-N-(3-(4-methyl-1H-imidazol-1-yl)-5-(trifluoromethyl)phenyl)-3-((8-((1-methyl-1H-pyrazol-4-yl)amino)imidazo[1,2-a]pyridin-3-yl)ethynyl)benzamide]: the remaining binding at 1 µM in assay [1] came out at 100%; in assay [2], 78%; in assay [3], 71%; in assay [4] (ABL1 (Q252H)-nonphosphorylated), 3%; in assay [4] (ABL1 (Q252H)-phosphorylated), 14%; in assay [5], 55%. The values for the remaining binding at 1 µM in assay [6], in assay [7] and in assay [8] were 66%, 95% and 87%, respectively.
Take `Cc1ccc(NC(=O)C2(C(=O)Nc3ccc(F)cc3)CC2)cc1C#Cc1cnc2c(Nc3cnn(C(C)C)c3)cccn12` [Example 78]: the remaining binding at 1 µM was found to be 100% in assay [1]; 100% in assay [2]; 92% in assay [3]; 6% in assay [4] (ABL1 (Q252H)-nonphosphorylated); 91% in assay [4] (ABL1 (Q252H)-phosphorylated); 63% in assay [5]. Besides, the results for the remaining binding at 1 µM in assay [6], in assay [7] and in assay [8] were 84%, 100% and 89%, respectively.

For the origin of these results see patent US10870647B2, “Imidazopyridine derivative, method for preparing same, and pharmaceutical composition containing same as active ingredient for preventing or treating cancer” (DAEGU-GYEONGBUK MEDICAL INNOVATION FOUNDATION, priority 2016, dated 2020).
